Test results as given in patent US9758494B2, “N-(oxazol-2-yl)-aryl-carboxylic acid amides and use thereof as herbicides” (BAYER CROPSCIENCE AG, priority 2012, dated 2017).

Experiments:
Assay type in all cases: in vivo
Oryza sativa (Rice) [1] = test: Pre-emergence, damage of crop plants
Text: (§1) Seeds of monocotyledonous and dicotyledonous weed plants and crop plants are laid out in wood-fiber pots in sandy loam and covered with soil. The compounds according to the invention, formulated in the form of wettable powders (WP) or as emulsion concentrates (EC), are then applied to the surface of the soil cover in the form of an aqueous suspension or emulsion at a water application rate equating to 600 to 800 l/ha, with addition of 0.2% wetting agent. After the treatment, the pots are placed in a greenhouse and kept under good growth conditions for the test plants. The damage to the test plants is assessed visually after a test period of 3 weeks by comparison with untreated controls (herbicidal activity in percent (%): 100% activity=the plants have died, 0% activity=like control plants). Here, for example, compounds No. 1-163, 1-171, 1-172, 1-283, 1-284, 1-294, 1-295, 1-334, 10-001 and 11-343, at an application rate of 320 g/ha, have an activity of at least 80% against Veronica persica.
(§2) In the tables below, the properties of the compounds according to the invention are compared to those of the structurally most similar compounds known from WO 2012/028579 A1. These tests were carried out by the pre- and post-emergence method under the conditions mentioned under item 1 and item 2. Here, the herbicidal activity against various harmful plants and the damage of some important crop plants were compared at different dosages.

Oryza sativa (Rice) [2] = test: Post-emergence, damage of crop plants; settings: for damage of crop plants, Crop plant ORYZA: Dosage 80/ha (Table Q)
Description: (§3) Seeds of monocotyledonous and dicotyledonous weed plants and crop plants are laid out in wood fiber pots in sandy loam, covered with soil and cultivated in a greenhouse under good growth conditions. 2 to 3 weeks after sowing, the test plants are treated at the one-leaf stage. The compounds according to the invention, formulated in the form of wettable powders (WP) or as emulsion concentrates (EC), are then sprayed onto the green parts of the plants in the form of an aqueous suspension or emulsion at a water application rate equating to 600 to 800 l/ha, with addition of 0.2% wetting agent. After the test plants have been left to stand in the greenhouse under optimal growth conditions for about 3 weeks, the action of the preparations is assessed visually in comparison to untreated controls (herbicidal action in percent (%): 100% activity=the plants have died, 0% activity=like control plants). Here, for example, compounds No. 1-163, 1-171, 1-172, 1-173, 1-254, 1-283, 1-284, 1-293, 1-294 and 1-334, at an application rate of 80 g/ha, have an activity of at least 80% against Abutilon theophrasti and Amaranthus retroflexus.
as §2

Zea mays (Corn) [3] = test: Post-emergence, damage of crop plants
Description: as §3, §2

Lolium multiflorum [4] = test: Pre-emergence herbicidal action; settings: for herbicidal activity against harmful plants LOLMU: Dosage 320/ha (Table F)
Text: as §1, §2

Polygonum convolvulus = test: Pre-emergence herbicidal action; settings: for herbicidal activity against harmful plants POLCO: Dosage 320/ha (Table F)
Text: as §1, §2

Cyperus serotinus = test: Post-emergence herbicidal action; settings: Dosage 80/ha (Table Q)
Description: as §3, §2

Lolium multiflorum [5] = test: Post-emergence herbicidal action; settings: for herbicidal activity, Harmful plants LOLMU: Dosage 80/ha (Table Q); for herbicidal activity against harmful plants LOLMU: Dosage 20/ha (Table R)
Description: as §3, §2

[6] = system: Brassica napus (Oilseed Rape); test: Pre-emergence, damage of crop plants
Text: as §1, §2

[7] = system: Triticum aestivum (Wheat); test: Pre-emergence, damage of crop plants
Text: as §1, §2

[8] = system: Brassica napus (Oilseed Rape); test: Post-emergence, damage of crop plants
Description: as §3, §2

[9] = system: Triticum aestivum (Wheat); test: Post-emergence, damage of crop plants
Description: as §3, §2

Alopecurus myosuroides [10] = test: Pre-emergence herbicidal action; settings: Dosage 320/ha (Table D)
Text: as §1, §2

Alopecurus myosuroides [11] = test: Post-emergence herbicidal action; settings: Dosage 80/ha (Table P)
Description: as §3, §2

Avena fatua = test: Post-emergence herbicidal action; settings: Dosage 80/ha (Table P)
Description: as §3, §2

Setaria viridis = test: Post-emergence herbicidal action
Description: as §3, §2

Zea mays (Corn) [12] = test: Pre-emergence, damage of crop plants; settings: Dosage 320/ha (Table G)
Text: as §1, §2

Pharbitis purpureum = test: Post-emergence herbicidal action; settings: Dosage 20/ha (Table S)
Description: as §3, §2

Cn1nnnc1NC(=O)c1ccc(C(F)(F)F)nc1Cl [WO 2012/028579, No. 8-10]
Damage of ORYZA (Oryza sativa (Rice) [1]; 20 g/ha (Table I)): 50%
Damage of ORYZA (Oryza sativa (Rice) [1]; 80 g/ha (Table I)): 90%
damage of crop plants ORYZA (Oryza sativa (Rice) [2]; Dosage 80 g/ha (Table U)): 90%
damage of crop plants ZEAMX (Zea mays (Corn) [3]; Dosage 80 g/ha (Table U)): 90%

Cn1nnnc1NC(=O)c1ccc(S(C)(=O)=O)c([S+](C)[O-])c1Cl (centres unmarked) [WO 2012/028579, No. 4-293]
herbicidal activity against harmful plants LOLMU (Lolium multiflorum [4]): 20%
herbicidal activity against harmful plants POLCO (Polygonum convolvulus): 20%
damage of crop plants, Crop plant ORYZA (Oryza sativa (Rice) [2]): 40%
herbicidal activity, Harmful plants CYPES (Cyperus serotinus): 40%
herbicidal activity, Harmful plants LOLMU (Lolium multiflorum [5]): 40%

CSc1c(C(F)(F)F)ccc(C(=O)Nc2nnnn2C)c1C [WO 2012/028579, No. 4-135]
damage of crop plants BRSNW ([6]; Dosage 80/ha (Table A)): 80%
damage of crop plants ORYZA (Oryza sativa (Rice) [1]; Dosage 80/ha (Table A)): 60%
damage of crop plants TRZAS ([7]; Dosage 80/ha (Table A)): 60%
damage of crop plants BRSNW ([8]; Dosage 80/ha (Table M)): 100%
damage of crop plants ORYZA (Oryza sativa (Rice) [2]; Dosage 80/ha (Table M)): 100%
damage of crop plants TRZAS ([9]; Dosage 80/ha (Table M)): 100%

Cc1c(C(=O)Nc2nnnn2-c2ccccc2)ccc(S(C)(=O)=O)c1S(C)(=O)=O [WO 2012/028579, No. 6-189]
damage of crop plants, Crop plant BRSNW ([6]; Dosage 320/ha (Table D)): 90%
damage of crop plants, Crop plant ORYZA (Oryza sativa (Rice) [1]; Dosage 320/ha (Table E)): 80%
damage of crop plants, Crop plant TRZAS ([7]; Dosage 320/ha (Table E)): 30%
herbicidal activity, Harmful plant ALOMY (Alopecurus myosuroides [10]): 0%
herbicidal activity, Harmful plant LOLMU (Lolium multiflorum [4]; Dosage 320/ha (Table E)): 70%
herbicidal activity, Harmful plant POLCO (Polygonum convolvulus; Dosage 320/ha (Table E)): 0%
herbicidal activity against harmful plants ALOMY (Alopecurus myosuroides [11]): 0%
herbicidal activity against harmful plants AVEFA (Avena fatua): 0%
herbicidal activity against harmful plants LOMU (Lolium multiflorum [5]; Dosage 80/ha (Table P)): 0%
herbicidal activity against harmful plants SETVI (Setaria viridis; Dosage 80/ha (Table P)): 20%

Cn1nnnc1NC(=O)c1ccc(C(F)(F)F)c([S+](C)[O-])c1Cl (centres unmarked) [WO 2012/028579, No. 4-639]
damage of crop plants BRSNW ([6]; Dosage 320/ha (Table G)): 90%
damage of crop plants ORYZA (Oryza sativa (Rice) [1]; Dosage 320/ha (Table G)): 90%
damage of crop plants ZEAMX (Zea mays (Corn) [12]): 40%
damage of crop plants, Crop plants ORYZA (Oryza sativa (Rice) [2]; Dosage 20/ha (Table S)): 60%
damage of crop plants, Crop plants TRZAS ([9]; Dosage 20/ha (Table S)): 100%
damage of crop plants, Crop plants ZEAMX (Zea mays (Corn) [3]; Dosage 20/ha (Table S)): 80%
herbicidal activity, Harmful plant PHBPU (Pharbitis purpureum): 40%

CCn1nnnc1NC(=O)c1ccc(C(F)(F)F)c(SC)c1C [WO 2012/028579, No. 5-146]
damage of crop plants BRSNW ([6]; Dosage 80/ha (Table B)): 90%
damage of crop plants ORYZA (Oryza sativa (Rice) [1]; Dosage 80/ha (Table B)): 90%
damage of crop plants TRZAS ([7]; Dosage 80/ha (Table B)): 30%
damage of crop plants BRSNW ([8]; Dosage 80/ha (Table N)): 100%
damage of crop plants ORYZA (Oryza sativa (Rice) [2]; Dosage 80/ha (Table N)): 80%
damage of crop plants TRZAS ([9]; Dosage 80/ha (Table N)): 60%

CCn1nnnc1NC(=O)c1ccc(S(C)(=O)=O)c([S+](C)[O-])c1Cl (centres unmarked) [WO 2012/028579, No. 5-294]
herbicidal activity against harmful plants LOLMU (Lolium multiflorum [5]): 10%
herbicidal activity against harmful plants SETVI (Setaria viridis; Dosage 20/ha (Table R)): 0%

C[S+]([O-])c1c(S(C)(=O)=O)ccc(C(=O)Nc2ncco2)c1Cl (centres unmarked) [1-284]
herbicidal activity against harmful plants LOLMU (Lolium multiflorum [4]): 100%
herbicidal activity against harmful plants POLCO (Polygonum convolvulus): 70%
damage of crop plants, Crop plant ORYZA (Oryza sativa (Rice) [2]): 20%
herbicidal activity, Harmful plants CYPES (Cyperus serotinus): 60%
herbicidal activity against harmful plants LOLMU (Lolium multiflorum [5]): 60%
herbicidal activity, Harmful plants LOLMU (Lolium multiflorum [5]): 70%
herbicidal activity against harmful plants SETVI (Setaria viridis; Dosage 20/ha (Table R)): 90%
